According to patent US8975235B2, “Lysophosphatidic acid receptor antagonists” (InterMune, Inc., priority 2011, dated 2015):
pEC50, pIC50: −log10 of the molar value.

Experiments:
Type in all cases: cell-based
Human LPA3 = target: T1, Human LPA3 (Homo sapiens, UniProt Q9UBY5); assay: LPA3 calcium flux assay; conditions: human LPA3 expressing CHO cells; stimulated with 10 nM LPA; read-out: Ca Flux LPA3 IC50
T1 construct: The full-length cDNA fragment for human LPA3 is obtained by PCR from the vector; expressed in transfected cells; host or cells: CHO
T1 sequence (Q9UBY5 1-353): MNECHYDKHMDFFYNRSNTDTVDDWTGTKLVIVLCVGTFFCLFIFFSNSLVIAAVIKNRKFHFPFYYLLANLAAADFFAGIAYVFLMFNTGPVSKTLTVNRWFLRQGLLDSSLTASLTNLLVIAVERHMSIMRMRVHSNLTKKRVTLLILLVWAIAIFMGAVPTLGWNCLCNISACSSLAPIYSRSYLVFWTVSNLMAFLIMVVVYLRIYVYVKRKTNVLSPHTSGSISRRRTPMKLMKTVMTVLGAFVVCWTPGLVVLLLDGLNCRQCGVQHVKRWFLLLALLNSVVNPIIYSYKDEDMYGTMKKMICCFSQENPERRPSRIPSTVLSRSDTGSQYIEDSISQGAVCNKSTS
Description: Establishment of a CHO Cell Line Stably Expressing Human LPA3
A vector containing the human LPA3 receptor cDNA is obtained from the Missouri S&T cDNA Resource Center (www.cdna.org). The full-length cDNA fragment for human LPA3 is obtained by PCR from the vector. The nucleotide sequence of the cloned human LPA3 is determined by sequencing and is confirmed to be identical to the published human LPA3 sequence (NCBI accession number NM_012152). The cDNA is cloned into the pcDNA5 pcDNA5/FRT expression plasmid and is transfected in CHO cells using lipofectamine 2000 (Invitrogen Corp., USA). Clones stably expressing human LPA3 are selected using hygromycin and identified as cells that show Ca-influx in response to LPA.
(§1) LPA1 and LPA3 Calcium Flux Assays
(§2) Human LPA1 or LPA3 expressing CHO cells were seeded at 20,000-45,000 cells per well in a 96-well poly-D-lysine coated plate one or two days before the assay. Prior to the assay, the cells were washed once with PBS and then cultured in serum-free media overnight. On the day of the assay, a calcium indicator dye (Calcium 4, Molecular Devices) in assay buffer (HBSS with Ca^2+ and Mg^2+ and containing 20 mM Hepes and 0.3% fatty-acid free human serum albumin) was added to each well and incubation continued for 1 hour at 37° C. 10 μl of test compounds in 2.5% DMSO were added to the cells and incubation continued at room temperature for 30 minutes. Cells were then stimulated by the addition of 10 nM LPA and intracellular Ca^2+ measured using the Flexstation 3 (Molecular Devices). IC50s were determined using Graphpad prism analysis of drug titration curves.

Human LPA1 [1] = target: T2, Human LPA1 (Homo sapiens, UniProt Q92633); assay: Beta-Arrestin based assay for human LPA1R antagonists (PathHunter); design: host or cells: CHO; conditions: CHO cells stably expressing ProLink tagged human LPA1R; agonist LPA 0.5 micromolar
How it was run: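 CHO cells stably expressing ProLink-tagged human LPA1R with β-arrestin–EA fusion, assayed by β-galactosidase complementation. Antagonists tested against 0.5 micromolar LPA ([…]), in quadruplicate. End-point luminescence fitted to a 4-parameter logistic to give IC50.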

Human LPA1 [2] = target: T2, Human LPA1; assay: LPA1 calcium flux assay; design: the full-length cDNA for human LPA1 is obtained by PCR of the reverse transcription reaction; expressed in transfected cells; host or cells: CHO; conditions: human LPA1 expressing CHO cells; stimulated with 10 nM LPA; read-out: Ca Flux LPA1 IC50
Description: Establishment of a CHO Cell Line Stably Expressing Human LPA1
A 1.1 kb cDNA encoding the human LPA1 receptor is cloned from human lung. Human lung RNA (Clontech Laboratories, Inc. USA) is reverse transcribed using the RETROscript kit (Ambion, Inc.) and the full-length cDNA for human LPA1 is obtained by PCR of the reverse transcription reaction. The nucleotide sequence of the cloned human LPA1 is determined by sequencing and is confirmed to be identical to the published human LPA1 sequence (An et al. Biochem. Biophys. Res. Commun. 231:619 (1997). The cDNA is cloned into the pcDNA5 pcDNA5/FRT expression plasmid and is transfected in CHO cells using lipofectamine 2000 (Invitrogen Corp., USA). Clones stably expressing human LPA1 are selected using hygromycin and identified as cells that show Ca-influx in response to LPA.
as §1, §2

T2 sequence (Q92633 whole entry, the tested form may be a part): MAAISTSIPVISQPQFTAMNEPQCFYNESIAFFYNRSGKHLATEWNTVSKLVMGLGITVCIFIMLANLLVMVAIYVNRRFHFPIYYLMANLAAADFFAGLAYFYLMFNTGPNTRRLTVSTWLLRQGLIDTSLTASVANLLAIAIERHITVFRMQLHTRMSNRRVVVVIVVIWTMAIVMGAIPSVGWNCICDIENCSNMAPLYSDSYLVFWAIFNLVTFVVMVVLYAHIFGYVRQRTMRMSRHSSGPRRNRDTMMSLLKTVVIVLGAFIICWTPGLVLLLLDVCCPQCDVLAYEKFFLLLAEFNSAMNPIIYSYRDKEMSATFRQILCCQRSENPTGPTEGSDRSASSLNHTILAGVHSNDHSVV

pIC50 (Human LPA3)	pEC50 (Human LPA1 [1])	pIC50 (Human LPA1 [2])	SMILES
6.30 to 7.30	> 7.30	> 7.30	Cc1noc(-c2ccc(-c3ccc(C(C(=O)O)c4ccccc4)cc3)cc2)c1NC(=O)O[C@H](C)c1ccccc1Cl (single isomer, unassigned) [Compound 14]
6.30 to 7.30	> 7.30	6.30 to 7.30	Cc1noc(-c2ccc(-c3ccc(CC(=O)O)c4ccccc34)cc2)c1NC(=O)O[C@H](C)c1ccccc1Cl [Compound 6]
< 6.30	6.30 to 7.30	> 7.30	Cc1nsc(-c2ccc(-c3ccc(CC(=O)O)cc3)cc2)c1NC(=O)O[C@H](C)c1ccccc1Cl [Compound 20]
< 6.30	> 7.30	> 7.30	Cc1nnn(-c2ccc(-c3ccc(C4(C(=O)O)CC4)cc3)cc2)c1NC(=O)O[C@H](C)c1ccccc1 [Compound 65]
< 6.30	> 7.30	> 7.30	Cc1noc(-c2ccc(-c3ccc(C4(C(=O)O)CC4)cc3)cc2)c1NC(=O)O[C@H](C)c1ccccc1 [Compound 74]
–	> 7.30	> 7.30	Cc1noc(-c2ccc3cc(C#CC4(C(=O)O)CC4)ccc3c2)c1NC(=O)O[C@H](C)c1ccccc1 [Compound 140]
–	> 7.30	6.30 to 7.30	C[C@@H](OC(=O)Nc1ocnc1-c1ccc(-c2ccc(C3(C(=O)O)CC3)cc2)cc1)c1ccccc1Cl [Compound 147]
< 6.30	> 7.30	6.30 to 7.30	C[C@@H](OC(=O)Nc1c(-c2ccc(-c3ccc(C4(C(=O)O)CC4)cc3)cc2)oc2cnccc12)c1ccccc1Cl [Compound 149]
6.30 to 7.30	> 7.30	6.30 to 7.30	C[C@@H](OC(=O)Nc1c(-c2ccc(-c3ccc(C4(C(=O)O)CC4)cc3)cc2)oc2ncccc12)c1ccccc1 [Compound 152]
< 6.30	> 7.30	< 6.30	C[C@@H](OC(=O)Nc1c(-c2ccc(-c3ccc(C4(C(=O)O)CC4)cc3)cc2)oc2ncccc12)c1ccccc1Cl [Compound 153]
< 6.30	> 7.30	> 7.30	C[C@@H](OC(=O)Nc1c(-c2ccc(-c3ccc(C4(C(=O)O)CC4)cc3)cc2)cnn1C)c1ccccc1 [Compound 170]
< 6.30	> 7.30	> 7.30	C[C@@H](OC(=O)Nc1c(-c2ccc(-c3ccc(C4(C(=O)O)CC4)cc3)cc2)cnn1C)c1ccccc1Cl [Compound 171]
–	> 7.30	6.30 to 7.30	Cc1nsc(-c2cc(Cl)c(-c3ccc(C4(C(=O)O)CC4)cc3)cc2F)c1NC(=O)O[C@H](C)c1ccccc1 [Compound 179]
–	> 7.30	> 7.30	Cc1nsc(-c2cc(F)c(-c3ccc(C4(C(=O)O)CC4)cc3)cc2F)c1NC(=O)O[C@H](C)c1ccccc1 [Compound 182]
–	> 7.30	> 7.30	Cc1nsc(-c2ccc(-c3ccc(C4(C(=O)O)CC4)cc3)c(F)c2)c1NC(=O)O[C@H](C)c1ccccc1 [Compound 185]
–	> 7.30	6.30 to 7.30	C[C@@H](OC(=O)Nc1c(-c2cc(F)c(-c3ccc(C4(C(=O)O)CC4)cc3)cc2F)cnn1C)c1ccccc1 [Compound 200]
–	> 7.30	> 7.30	C[C@@H](OC(=O)Nc1c(-c2cc(Cl)c(-c3ccc(C4(C(=O)O)CC4)cc3)cc2F)cnn1C)c1ccccc1 [Compound 201]
–	6.30 to 7.30	6.30 to 7.30	Cc1nsc(-c2ccc(-c3ccc(C4(C(=O)O)COC4)cc3)cc2)c1NC(=O)O[C@H](C)c1ccccc1 [Compound 241]
–	> 7.30	6.30 to 7.30	Cc1noc(-c2ccc(-c3ccc(C4(C(=O)O)CCOCC4)cc3)cc2)c1NC(=O)O[C@H](C)c1ccccc1 [Compound 242]
